Values of other authors in patent publication US6841573B2, “Use of arachidonic acid as a method of increasing skeletal muscle mass” (Molecular Nutrition, priority 2002, dated 2005).

Key:
cox-1 enzyme = target: T1, cox-1 enzyme (Homo sapiens, UniProt P23219); settings: by inhibiting the normal post-exercise increase in PGF2alpha
T1 construct: host or cells: skeletal muscle in vivo (endogenous enzyme)

intact rabbit muscle = settings: unstimulated intact rabbit muscle, in-vitro
[1] = serum from forearm and kidney of human volunteers after direct infusion into brachial or renal artery
[2] = 14C-labeled arachidonic acid, human skeletal muscle and kidney homogenates
[3] = after oral 200 mg and 1.5 g supplemented arachidonic acid per day, human, drawn blood
[4] = after administering the precursor

T1 sequence (P23219 24-599): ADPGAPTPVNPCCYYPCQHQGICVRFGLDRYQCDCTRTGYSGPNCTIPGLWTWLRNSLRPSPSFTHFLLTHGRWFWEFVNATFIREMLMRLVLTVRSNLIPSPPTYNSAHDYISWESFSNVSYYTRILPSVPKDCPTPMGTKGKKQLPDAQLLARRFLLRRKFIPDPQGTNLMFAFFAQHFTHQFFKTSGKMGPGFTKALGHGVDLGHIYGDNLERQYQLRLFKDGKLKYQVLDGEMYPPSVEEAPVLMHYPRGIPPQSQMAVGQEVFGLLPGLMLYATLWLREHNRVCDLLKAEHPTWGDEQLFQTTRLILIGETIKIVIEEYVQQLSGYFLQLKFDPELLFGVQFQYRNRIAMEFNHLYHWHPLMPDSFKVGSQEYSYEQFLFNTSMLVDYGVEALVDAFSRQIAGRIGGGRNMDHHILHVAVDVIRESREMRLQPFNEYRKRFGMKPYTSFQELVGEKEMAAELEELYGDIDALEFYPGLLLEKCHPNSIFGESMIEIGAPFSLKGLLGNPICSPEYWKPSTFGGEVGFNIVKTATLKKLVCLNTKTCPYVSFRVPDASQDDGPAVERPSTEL

Row | Compound | effect on rates of protein synthesis (intact rabbit muscle) | other results
1 | CC(=O)Nc1ccc(O)cc1 [acetaminophen] | – | effect on anabolic response of muscle to resistance exercise (cox-1 enzyme): profoundly diminish the anabolic response
2 | CCCCC/C=C\C\C=C/C=C/C=C/[C@@H](SC[C@H](NC(=O)CC[C@H](N)C(=O)O)C(=O)NCC(=O)O)[C@@H](O)CCCC(=O)O [leukotriene C4] | failed to do so | –
3 | CCCCC[C@H](O)/C=C/[C@H]1[C@H](O)CC(=O)[C@@H]1C/C=C\CCCC(=O)O [prostaglandin E2, PGE2] | failed to do so | –
4 | CCCCC[C@H](O)/C=C/[C@H]1C=CC(=O)[C@@H]1CCCCCCC(=O)O [prostaglandin A1] | increased rates of protein synthesis | –
5 | CCCCC/C=C\C/C=C\C/C=C\C/C=C\CCCC(=O)O [arachidonic acid] | – | labeled metabolites found in serum [1]: PGD2, PGE2, PGF2 alpha, 6-keto-PGF1 alpha and 13,14-dihydro-15-keto-PGE2 (Me) were all found; prostaglandins produced during incubation [2]: PGD2, PGE2, PGF2 alpha and 6-keto-PGF1 alpha; in-vitro secretion of LTB4 and PGE2 [3]: measurably increase
6 | CCCCC[C@H](O)/C=C/[C@@H]1[C@@H](C/C=C\CCCC(=O)O)[C@@H](O)C[C@H]1O [prostaglandin F2 alpha, PGF2alpha] | increased rates of protein synthesis | –
7 | C[C@]12CCC(=O)C=C1CC[C@@H]1[C@@H]2CC[C@]2(C)C(=O)CC[C@@H]12 [androstenedione] | – | period of subsequent decline of active hormone (testosterone) concentration [4]: three to four; time to peak concentration of active hormone (testosterone) [4]: ≤ 90 min
8 | CCCCC[C@H](O)/C=C/[C@H]1C(=O)C[C@H](O)[C@@H]1C/C=C\CCCC(=O)O [prostaglandin D2, PGD2] | failed to do so | –
9 | CCCCC/C=C\C\C=C/C=C/C=C/[C@@H](SC[C@H](N)C(=O)NCC(=O)O)[C@@H](O)CCCC(=O)O [leukotriene D4] | failed to do so | –
